Laboratory results reported in patent publication US20090029949A1, “GPCR Ligands Identified by Computational Modeling” (priority 2006, published 2009).

Tests used:
S1P1 mutant T5.45G = target: T1, S1P1 mutant T5.45G (Homo sapiens, UniProt P21453, T207G); assay: [35S]GTPγS binding, S1P1 T5.45G; assay type: biochemical; settings: S1P-induced, S1P1 T5.45G in RH7777 cells
T1 construct: expressed in transfected cells; host or cells: RH7777 (transient, pcDNA3.1)
Experimental: (§1) RH7777 and HEK-293 cells (ATCC, Manassas, Va.) were maintained in Dulbecco's modified minimal essential medium (DMEM) containing 10% fetal bovine serum (Hyclone, Logan, Utah). Cells (2×10^6) were transfected with 2 μg of plasmid DNA with Effectene (Qiagen, Valencia, Calif.) according to the manufacturer's instructions, for 24 h. Before ligand binding and receptor activation assays, the cells were washed twice with serum-free DMEM and serum-starved for at least 6 h.
(§2) S1P1 Receptor Activation Assays Receptor functional assays were performed in transiently transfected RH7777 cells by measuring S1P-activated [^35S]GTPγS binding as previously described (28).

S1P1 mutant F5.48Y = target: T2, S1P1 mutant F5.48Y (Homo sapiens, UniProt P21453, F210Y); assay: [35S]GTPγS binding, S1P1 F5.48Y; assay type: biochemical; settings: S1P-induced, S1P1 F5.48Y in RH7777 cells
T2 construct: expressed in transfected cells; host or cells: RH7777
Experimental: as §1, §2

S1P1 mutant F5.48G [1] = target: T3, S1P1 mutant F5.48G (Homo sapiens, UniProt P21453, F210G); assay: [32P]S1P competition binding, HEK-293 cells, F5.48G; settings: S1P1 F5.48G
T3 construct: expressed in transfected cells
Experimental: (§3) For the competition assays, HEK-293 cells were used. Briefly, 4×10^5 cells were plated in 24-well dishes and allowed to adhere overnight. The cells were then transfected with 0.4 μg of the cDNA using Lipofectamine 2000 (Invitrogen) and the transfection proceeded for 48 h. After washing the cells twice with ice-cold binding buffer (20 mM Tris-HCl, pH 7.4 and 150 mM NaCl), 0.1 nM [^32P]S1P and competing concentrations of cold S1P (1 nM-10 μM), resuspended in binding buffer+4% BSA, were applied to the cells and incubated on ice for 30 min. After washing the cells twice with ice-cold binding buffer+0.4% BSA, the cells were lysed with 0.5% SDS and equilibrated in scintillation fluid. The samples were measured in triplicate.

S1P1 mutant T5.45S = target: T4, S1P1 mutant T5.45S (Homo sapiens, UniProt P21453, T207S); assay: [35S]GTPγS binding, S1P1 T5.45S; assay type: biochemical; settings: S1P-induced, S1P1 T5.45S in RH7777 cells
T4 construct: expressed in transfected cells; host or cells: RH7777 (transient, pcDNA3.1)
Experimental: as §1, §2

S1P1 mutant V3.40T = target: T5, S1P1 mutant V3.40T (Homo sapiens, UniProt P21453, V132T); assay: [35S]GTPγS binding, S1P1 V3.40T; assay type: biochemical; settings: S1P-induced, S1P1 V3.40T in RH7777 cells
T5 construct: expressed in transfected cells; host or cells: RH7777 (transient, pcDNA3.1)
Experimental: as §1, §2

S1P1 mutant V6.40A [2] = target: T6, S1P1 mutant V6.40A (Homo sapiens, UniProt P21453, V261A); assay: [35S]GTPγS binding, S1P1 V6.40A; assay type: biochemical; set-up: expressed in transfected cells; host or cells: RH7777 (GTPγS); settings: S1P-induced, S1P1 V6.40A in RH7777 cells
Experimental: as §1, §2

[3] = target: T7, S1P1 double mutant L3.43, 3.44G (Homo sapiens, UniProt P21453, L135G/L136G); assay: [35S]GTPγS binding, S1P1 L3.43, 3.44G; assay type: biochemical; settings: S1P-induced, S1P1 L3.43, 3.44G in RH7777 cells
T7 construct: expressed in transfected cells; host or cells: RH7777
Experimental: as §1, §2

S1P1 mutant F5.48G [4] = target: T3, S1P1 mutant F5.48G; assay: [35S]GTPγS binding, S1P1 F5.48G; assay type: biochemical; settings: S1P-induced, S1P1 F5.48G in RH7777 cells
Experimental: as §1, §2

S1P1 mutant V5.47L = target: T8, S1P1 mutant V5.47L (Homo sapiens, UniProt P21453, V209L); assay: [35S]GTPγS binding, S1P1 V5.47L; assay type: biochemical; settings: S1P-induced, S1P1 V5.47L in RH7777 cells
T8 construct: expressed in transfected cells; host or cells: RH7777
Experimental: as §1, §2

S1P1 mutant V6.40T = target: T9, S1P1 mutant V6.40T (Homo sapiens, UniProt P21453, V261T); assay: [35S]GTPγS binding, S1P1 V6.40T; assay type: biochemical; settings: S1P-induced, S1P1 V6.40T in RH7777 cells
T9 construct: expressed in transfected cells; host or cells: RH7777
Experimental: as §1, §2

S1P1 mutant F5.43G = target: T10, S1P1 mutant F5.43G (Homo sapiens, UniProt P21453, F205G); assay: [35S]GTPγS binding, S1P1 F5.43G; assay type: biochemical; settings: S1P-induced, S1P1 F5.43G in RH7777 cells
T10 construct: expressed in transfected cells; host or cells: RH7777 (transient, pcDNA3.1)
Experimental: as §1, §2

S1P1 mutant V6.40A [5] = target: T6, S1P1 mutant V6.40A; assay: [32P]S1P competition binding, HEK-293 cells, V6.40A; set-up: expressed in transfected cells; settings: S1P1 V6.40A
Experimental: as §3

S1P1 mutant F5.43Y = target: T11, S1P1 mutant F5.43Y (Homo sapiens, UniProt P21453, F205Y); assay: [35S]GTPγS binding, S1P1 F5.43Y; assay type: biochemical; settings: S1P-induced, S1P1 F5.43Y in RH7777 cells
T11 construct: expressed in transfected cells; host or cells: RH7777 (transient, pcDNA3.1)
Experimental: as §1, §2

S1P1 mutant L5.51G = target: T12, S1P1 mutant L5.51G (Homo sapiens, UniProt P21453, L213G); assay: [35S]GTPγS binding, S1P1 L5.51G; assay type: biochemical; settings: S1P-induced, S1P1 L5.51G in RH7777 cells
T12 construct: expressed in transfected cells; host or cells: RH7777 (transient, pcDNA3.1)
Experimental: as §1, §2

S1P1 mutant M3.32K = target: T13, S1P1 mutant M3.32K (Homo sapiens, UniProt P21453, M124K); assay: [35S]GTPγS binding, S1P1 M3.32K; assay type: biochemical; settings: S1P-induced, S1P1 M3.32K in RH7777 cells
T13 construct: expressed in transfected cells; host or cells: RH7777
Experimental: as §1, §2

S1P1 mutant C5.44D = target: T14, S1P1 mutant C5.44D (Homo sapiens, UniProt P21453, C206D); assay: [35S]GTPγS binding, S1P1 C5.44D; assay type: biochemical; settings: S1P-induced, S1P1 C5.44D in RH7777 cells
T14 construct: expressed in transfected cells; host or cells: RH7777 (transient, pcDNA3.1)
Experimental: as §1, §2

S1P1 mutant T5.49G = target: T15, S1P1 mutant T5.49G (Homo sapiens, UniProt P21453, T211G); assay: [35S]GTPγS binding, S1P1 T5.49G; assay type: biochemical; settings: S1P-induced, S1P1 T5.49G in RH7777 cells
T15 construct: expressed in transfected cells; host or cells: RH7777 (transient, pcDNA3.1)
Experimental: as §1, §2

S1P1 mutant C5.44I = target: T16, S1P1 mutant C5.44I (Homo sapiens, UniProt P21453, C206I); assay: [35S]GTPγS binding, S1P1 C5.44I; assay type: biochemical; settings: S1P-induced, S1P1 C5.44I in RH7777 cells
T16 construct: expressed in transfected cells; host or cells: RH7777 (transient, pcDNA3.1)
Experimental: as §1, §2

[6] = competition with cold S1P, read-out: KD + s.d.

T3 sequence (P21453 whole entry F210G): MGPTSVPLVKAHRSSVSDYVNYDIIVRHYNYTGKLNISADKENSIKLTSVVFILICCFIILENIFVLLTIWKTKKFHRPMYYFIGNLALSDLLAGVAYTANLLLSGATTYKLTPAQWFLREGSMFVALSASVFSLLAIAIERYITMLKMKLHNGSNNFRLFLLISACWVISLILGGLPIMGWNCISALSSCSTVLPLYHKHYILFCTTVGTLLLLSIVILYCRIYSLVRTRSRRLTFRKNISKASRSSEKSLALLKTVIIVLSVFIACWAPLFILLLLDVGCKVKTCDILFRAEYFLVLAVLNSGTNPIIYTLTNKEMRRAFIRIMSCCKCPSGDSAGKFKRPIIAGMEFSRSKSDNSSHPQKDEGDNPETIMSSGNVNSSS
T6 sequence (P21453 whole entry V261A): as the sequence (P21453 whole entry F210G) above, with G210F, V261A counted along it
T7 sequence (P21453 whole entry L135G/L136G): as the sequence (P21453 whole entry F210G) above, with L135G, L136G, G210F counted along it
T14 sequence (P21453 whole entry C206D): as the sequence (P21453 whole entry F210G) above, with C206D, G210F counted along it
T11 sequence (P21453 whole entry F205Y): as the sequence (P21453 whole entry F210G) above, with F205Y, G210F counted along it
T4 sequence (P21453 whole entry T207S): as the sequence (P21453 whole entry F210G) above, with T207S, G210F counted along it
T12 sequence (P21453 whole entry L213G): as the sequence (P21453 whole entry F210G) above, with G210F, L213G counted along it
T15 sequence (P21453 whole entry T211G): as the sequence (P21453 whole entry F210G) above, with G210F, T211G counted along it
T13 sequence (P21453 whole entry M124K): as the sequence (P21453 whole entry F210G) above, with M124K, G210F counted along it
T2 sequence (P21453 whole entry F210Y): as the sequence (P21453 whole entry F210G) above, with G210Y counted along it
T16 sequence (P21453 whole entry C206I): as the sequence (P21453 whole entry F210G) above, with C206I, G210F counted along it
T1 sequence (P21453 whole entry T207G): as the sequence (P21453 whole entry F210G) above, with T207G, G210F counted along it
T5 sequence (P21453 whole entry V132T): as the sequence (P21453 whole entry F210G) above, with V132T, G210F counted along it
T9 sequence (P21453 whole entry V261T): as the sequence (P21453 whole entry F210G) above, with G210F, V261T counted along it
T8 sequence (P21453 whole entry V209L): as the sequence (P21453 whole entry F210G) above, with V209L, G210F counted along it
T10 sequence (P21453 whole entry F205G): as the sequence (P21453 whole entry F210G) above, with F205G, G210F counted along it

## CCCCCCCCCCCCC/C=C/[C@@H](O)[C@@H](N)COP(=O)(O)O [S1P, Sphingosine 1-phosphate]
S1P1 mutant T5.45G
  EC50: 30.9 nM
S1P1 mutant T5.45G; read-out: % WT Emax + s.d.
  Emax: 96%
S1P1 mutant F5.48Y
  % WT Emax + s.d.: ∞
  EC50 + s.d.: ∞
S1P1 mutant F5.48G [1]
  Bmax: 2580 fmol
S1P1 mutant F5.48G [1]; [6]
  Kd: 20.2 nM
S1P1 mutant T5.45S
  EC50: 7.9 nM
S1P1 mutant T5.45S; read-out: % WT Emax + s.d.
  Emax: 28%
S1P1 mutant V3.40T
  EC50: 13.8 ± 1.8 nM
S1P1 mutant V3.40T; read-out: % WT Emax + s.d.
  Emax: 137%
S1P1 mutant V6.40A [2]
  EC50: 14.8 nM
S1P1 mutant V6.40A [2]; read-out: % WT Emax + s.d.
  Emax: 69%
[3]
  % WT Emax + s.d.: ∞
  EC50 + s.d.: ∞
S1P1 mutant F5.48G [4]
  % WT Emax + s.d.: ∞
  EC50 + s.d.: ∞
S1P1 mutant V5.47L
  % WT Emax + s.d.: ∞
  EC50 + s.d.: ∞
S1P1 mutant V6.40T
  EC50: 57.3 nM
S1P1 mutant V6.40T; read-out: % WT Emax + s.d.
  Emax: 61%
S1P1 mutant F5.43G
  EC50: 11.8 nM
S1P1 mutant F5.43G; read-out: % WT Emax + s.d.
  Emax: 70%
S1P1 mutant V6.40A [5]
  Bmax: 2040 fmol
S1P1 mutant V6.40A [5]; [6]
  Kd: 27.6 nM
S1P1 mutant F5.43Y
  EC50: 23 nM
S1P1 mutant F5.43Y; read-out: % WT Emax + s.d.
  Emax: 90%
S1P1 mutant L5.51G
  EC50: 2.6 ± 2.1 nM
S1P1 mutant L5.51G; read-out: % WT Emax + s.d.
  Emax: 46%
S1P1 mutant M3.32K
  % WT Emax + s.d.: ∞
  EC50 + s.d.: ∞
S1P1 mutant C5.44D
  EC50: 79 ± 17 nM
S1P1 mutant C5.44D; read-out: % WT Emax + s.d.
  Emax: 85%
S1P1 mutant T5.49G
  EC50: 5.4 nM
S1P1 mutant T5.49G; read-out: % WT Emax + s.d.
  Emax: 107%
S1P1 mutant C5.44I
  EC50: 20.4 ± 2.1 nM
S1P1 mutant C5.44I; read-out: % WT Emax + s.d.
  Emax: 37%
